According to paper PMC3199867, “Targeting surface nucleolin with multivalent HB-19 and related Nucant pseudopeptides results in distinct inhibitory mechanisms depending on the malignant tumor cell type” (BMC Cancer, 2011):

How the values were obtained:
Type in all cases: cell-based, human
SW620 = assay: Cell death (trypan blue uptake); settings: SW620, subconfluent, N6 or N7 20 μM, mean of at least 2 independent experiments
Experimental: (§1) Human breast (MDA-MB-231, MDA-MB-435 [37]), prostate (LNCaP, from American Type Culture Collection, ATCC, Rockville, MD), and cervical (HeLa) epithelial cancer cells were grown in DMEM-glutamax medium (Gibco Invitrogen, Cergy-Pontoise, France) containing GlutaMAX™, 4.5 g/l glucose and supplemented with 10% heat-inactivated (56°C for 30 min) fetal bovine serum (FBS; Hyclone, Thermo Fisher Scientific, Inc). Human SW480 cells are derived from a grade 3-4 colon carcinoma, while the highly metastatic counterpart SW620 is established from the lymph node of a person. Both SW480 and SW620 cells (obtained from Francis Raul, IRCAD) are highly tumorigenic in nude mice. They were cultured in D-MEM, 10% FCS. The murine melanoma TIII cell line was obtained from Armelle Prévost-Blondel. Murine T29 lymphoma cells, obtained from Philippe Kastner (CNRS, Strasbourg), have been established from Ik^L/L tumors from mice carrying a hypomorphic mutation (Ik^L/L) in the Ikaros gene encoding a transcription factor that regulates lymphocyte differentiation, and acts also as a tumor suppressor in T lymphocytes. The T29 cells were cultured in RPMI medium containing 25 mM Hepes pH 7.6, 1 mM sodium pyruvate, and 10% FCS. Human leukemia cell lines, Jurkat (acute T cell leukemia), HuT 78 (cutaneous T lymphocyte), RAJI (Burkitt lymphoma), and HL60 (promyelocytic leukemia) were cultured in RPMI-1640 medium (Gibco) containing GlutaMAX™, and supplemented with 10% heat-inactivated FBS as described before. The wild-type Chinese hamster ovary cell line (CHO K1) was purchased from American Type Culture Collection (ATCC; Rockville, MD). The CHO LRP1-null cell line (CHO-13-5-1) was kindly provided by D. Strickland [47]. They were cultured in Ham's F12K medium. All cells were cultured with 10% (v/v) heat inactivated (56°C, 30 min) fetal bovine serum (FBS) (Roche Molecular Biochemicals, Indianapolis, IN) and 50 international units/mL penicillin-streptomycin (Invitrogen). Cell death was monitored conveniently by uptake of the trypan blue dye due to plasma membrane permeability of dying and/or dead cells.

MDA-MB 231 = assay: Cell growth (viable cell number); settings: N6 or N7 20 μM, viable cell number vs untreated control, mean of at least 2 independent experiments
Experimental: as §1

HL60 = assay: Cell growth (viable cell number); settings: N6 or N7 20 μM, viable cell number vs untreated control, mean of at least 2 independent experiments
Experimental: as §1

LNCaP = assay: Cell growth (viable cell number); settings: N6 or N7 20 μM, viable cell number vs untreated control, mean of at least 2 independent experiments
Experimental: as §1

Jurkat = assay: Cell growth (viable cell number); settings: N6 or N7 20 μM, viable cell number vs untreated control, mean of at least 2 independent experiments
Experimental: as §1

RAJI = assay: Cell growth (viable cell number); settings: N6 or N7 20 μM, viable cell number vs untreated control, mean of at least 2 independent experiments
Experimental: as §1

HuT 78 = assay: Cell growth (viable cell number); settings: N6 or N7 20 μM, viable cell number vs untreated control, mean of at least 2 independent experiments
Experimental: as §1

MDA-MB 435 = assay: Cell growth (viable cell number); settings: N6 or N7 20 μM, viable cell number vs untreated control, mean of at least 2 independent experiments
Experimental: as §1

HeLa = assay: Cell growth (viable cell number); settings: N6 or N7 20 μM, viable cell number vs untreated control, mean of at least 2 independent experiments
Experimental: as §1

[1] = system: surface/cytoplasmic nucleolin; assay: Down regulation of surface/cytoplasmic nucleolin in MDA-MB 231 cells, immunoblotting; settings: MDA-MB 231, 10 μM, 16 hours, immunoblotting with mAb D3; nuclear nucleolin not affected
Experimental: Nucleolin was analyzed by immunoblotting using either the monoclonal antibody (mAb) D3 against nucleolin (kindly provided by Dr. J. S. Deng), or rabbit polyclonal antibodies directed against a synthetic peptide corresponding to the first 26 ([…]) and the last 16 ([…]) amino acid residues of human nucleolin as described before. […] The reacting bands were visualized with an enhanced chemiluminescence (ECL) reagent and by exposure to autoradiography film (Amersham Biosciences). In some experiments, the presence of actin was monitored as a control with mAb anti-actin A-4700 (Sigma). […]
Figure 2 HB-19 and related Nucant pseudopeptides antagonize surface nucleolin and trigger its down regulation. […] At 48 h post-infection, the β-galactosidase activity was measured in cell extracts directly to monitor HIV entry (Methods). The abscissa gives % Activity of surface nucleolin calculated from the optical density measurements at 570 nm. […] Cytoplasmic (containing cytoplasmic as well as surface nucleolin) and nuclear extracts were analyzed by immunoblotting using mAb D3 as described (Methods)(panels Surface/cytoplasmic NCL, Nuclear NCL). […] HeLa cells in the absence (histogram C) or presence of 1, 2, 5, and 10 μM of N6L were cultured for 7 hours before preparation of cell extracts and immunoblotting as in section B. The intensity of nucleolin protein bands was quantified by using the NIH image software. […]

Substance	% Cell death After 24 hours (SW620) [%]	% Growth inhibition After 3 days (MDA-MB 231) [%]	% Growth inhibition After 3 days (HL60) [%]	% Growth inhibition After 3 days (LNCaP) [%]	% Growth inhibition After 3 days (Jurkat) [%]	% Growth inhibition After 3 days (RAJI) [%]	% Growth inhibition After 3 days (HuT 78) [%]	% Growth inhibition After 3 days (MDA-MB 435) [%]	% Growth inhibition After 3 days (HeLa) [%]	level of surface/cytoplasmic nucleolin [1]
Ac-KAKPGKAKPGKAKPG-NH2 [Nucant N7, Presents hexavalently the pseudo-tripeptide Lysψ(CH2N)-Pro-Arg coupled to a similar template as in HB-19]	< 5	92	65	88	80	75	62	58	46	almost completely abolished
Ac-Lys-Aib-Gly-Lys-Aib-Gly-Lys-Aib-Gly-Lys-Aib-Gly-Lys-Aib-Gly-Lys-Aib-Gly-CONH2 [Nucant N6, Presents hexavalently the pseudo-tripeptide Lysψ(CH2N)-Pro-Arg coupled to the polypeptide template containing Aib]	< 5	92	65	88	80	75	62	58	46	almost completely abolished
